From patent publication US12459951B2, “Compounds that interact with RAS superfamily proteins for treatment of cancers, inflammatory diseases, rasopathies, and fibrotic disease” (SHY Therapeutics, LLC, priority 2022, dated 2025)

Legend:
Erk1/2 phosphorylation = assay: Erk1/2 Phosphorylation Assay (western blot), Panc-1; type: cell-based, human; conditions: at 10 μM, * = activation
Method in brief: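 KRas G12D Panc-1 cells were treated 6 h at 37° C with compound at 10 μM or serial dilutions for IC50 (0.3% DMSO). In method 1, cells were serum-starved overnight (0.5% FBS) and then given 1.5 ng/ml EGF for 15 min. In method 2, cells stayed in 10% FBS without stimulation. Lysate phospho-Erk1/2 (Thr202/Tyr204) was read by western blot.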

Akt phosphorylation = assay: Akt Phosphorylation Assay (western blot), Panc-1; type: cell-based, human; conditions: at 10 μM, * = activation
Method in brief: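 Panc-1 (KRas G12D) cells were treated with compound at 10 μM final (0.3% DMSO) for 6 h at 37 °C, or with serial dilutions for IC50. Cells were either serum-starved overnight in 0.5% FBS and then stimulated with 1.5 ng/ml EGF for 15 min, or kept in 10% FBS without stimulation. Akt Ser473 phosphorylation in lysates was read by western blot.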

SMILES | % inh of Erk1/2 phosphorylation in Panc-1 (Erk1/2 phosphorylation) | % inh of Akt phosphorylation in Panc-1 (Akt phosphorylation)
COCCCS(=O)(=O)Nc1nc(-c2nccn2C)nn2cc(-c3ccccc3)c(-c3ccccc3)c12 [Compound 213, 3-Methoxy-N-(2-(1-methyl-1H-imidazol-2-yl)-5,6-diphenylpyrrolo[2,1-f][1,2,4]triazin-4-yl)propane-1-sulfonamide] | D* (85-100% activation) | D* (85-100% activation)
CO[C@H]1CC[C@H](Nc2nc(-c3nccn3C)nn3cc(-c4ccn(C)n4)c(C(=O)NCC(F)(F)F)c23)C1 (racemic) [Compound 181, 4-(((1S,3S)-3-Methoxycyclopentyl)amino)-2-(1-methyl-1H-imidazol-2-yl)-6-(1-methyl-1H-pyrazol-3-yl)-N-(2,2,2-trifluoroethyl)pyrrolo[2,1-f][1,2,4]triazine-5-carboxamide] | A (1-25% inhibition) | B* (26-49% activation)
COc1cc(Nc2nc(-c3nccn3C)nn3cc(-c4ccn(C)n4)c(C)c23)ncc1C [Compound 235, N-(4-Methoxy-5-methylpyridin-2-yl)-5-methyl-2-(1-methyl-1H-imidazol-2-yl)-6-(1-methyl-1H-pyrazol-3-yl)pyrrolo[2,1-f][1,2,4]triazin-4-amine] | B* (26-49% activation) | D* (85-100% activation)
CO[C@@H]1C[C@H]1Nc1nc(-c2nccn2C)nn2cc(-c3ccncc3)c(-c3ccccc3)c12 (racemic) [Compound 197, rac N-((1R,2R)-2-methoxycyclopropyl)-2-(1-methyl-1H-imidazol-2-yl)-5-phenyl-6-(pyridin-4-yl)pyrrolo[2,1-f][1,2,4]triazin-4-amine] | D* (85-100% activation) | A* (1-25% activation)
CO[C@H]1C[C@H](S(=O)(=O)Nc2nc(-c3nccn3C)nn3cc(-c4ccccc4)c(-c4ccccc4)c23)C1 [Compound 214, (1r,3r)-3-Methoxy-N-(2-(1-methyl-1H-imidazol-2-yl)-5,6-diphenylpyrrolo[2,1-f][1,2,4]triazin-4-yl)cyclobutane-1-sulfonamide] | A* (1-25% activation) | A* (1-25% activation)
CO[C@H]1C[C@H](Nc2nc(-c3nccn3C)nn3cc(-c4cccnc4)c(-c4ccccc4)c23)C1 [Compound 192, N-((1r,3r)-3-Methoxycyclobutyl)-2-(1-methyl-1H-imidazol-2-yl)-5-phenyl-6-(pyridin-3-yl)pyrrolo[2,1-f][1,2,4]triazin-4-amine] | D* (85-100% activation) | D* (85-100% activation)
CO[C@H]1C[C@H](Nc2nc(-c3nccn3C)nn3cc(-c4ccccc4)c(-c4ccccc4)c23)C1 [Compound 203, N-((1r,3r)-3-Methoxycyclobutyl)-2-(1-methyl-1H-imidazol-2-yl)-5,6-diphenylpyrrolo[2,1-f][1,2,4]triazin-4-amine] | D (85-100% inhibition) | D (85-100% inhibition)
COc1ccnc(Nc2nc(-c3nccn3C)nn3cc(-c4ccn(CCN)n4)c(C)c23)c1 [Compound 187, 6-(1-(2-Aminoethyl)-1H-pyrazol-3-yl)-N-(4-methoxypyridin-2-yl)-5-methyl-2-(1-methyl-1H-imidazol-2-yl)pyrrolo[2,1-f][1,2,4]triazin-4-amine] | A (1-25% inhibition) | C* (46-84% activation)
Cc1c(-c2ccn(C)n2)cn2nc(-c3nccn3C)nc(Nc3ccc(-n4ccnc4)cn3)c12 [Compound 242, N-(5-(1H-Imidazol-1-yl)pyridin-2-yl)-5-methyl-2-(1-methyl-1H-imidazol-2-yl)-6-(1-methyl-1H-pyrazol-3-yl)pyrrolo[2,1-f][1,2,4]triazin-4-amine] | 0 (0% inhibition) | D* (85-100% activation)
COc1cccc(-c2cn3nc(-c4nccn4C)nc(N[C@H]4C[C@H](OC)C4)c3c2-c2ccccc2)c1C [Compound 209, 6-(3-methoxy-2-methylphenyl)-N-((1r,3r)-3-methoxycyclobutyl)-2-(1-methyl-1H-imidazol-2-yl)-5-phenylpyrrolo[2,1-f][1,2,4]triazin-4-amine] | D (85-100% inhibition) | D (85-100% inhibition)
CO[C@H]1C[C@@H](Nc2nc(-c3nccn3C)nn3cc(-c4ccncc4)c(-c4ccccc4)c23)C1 [Compound 198, N-((1s,3s)-3-Methoxycyclobutyl)-2-(1-methyl-1H-imidazol-2-yl)-5-phenyl-6-(pyridin-4-yl)pyrrolo[2,1-f][1,2,4]triazin-4-amine] | D* (85-100% activation) | C (50-84% inhibition)
COCCNC(=O)c1c(-c2ccn(C)n2)cn2nc(-c3nccn3C)nc(N[C@H]3CC[C@H](OC)C3)c12 (racemic) [Compound 183, rac 4-(((1S,3S)-3-Methoxycyclo-pentyl)amino)-N-(2-methoxyethyl)-2-(1-methyl-1H-imidazol-2-yl)-6-(1-methyl-1H-pyrazol-3-yl)pyrrolo[2,1-f][1,2,4]triazine-5-carboxamide] | D* (85-100% activation) | A (1-25% inhibition)
CO[C@H]1C[C@H](Nc2nc(-c3nccn3C)nn3cc(-c4cccnc4)c(-c4cccnc4)c23)C1 [Compound 171, N-((1r,3r)-3-Methoxycyclobutyl)-2-(1-methyl-1H-imidazol-2-yl)-5,6-di(pyridin-3-yl)pyrrolo[2,1-f][1,2,4]triazin-4-amine] | B (26-49% inhibition) | B (26-49% inhibition)
COc1ccnc(Nc2nc(-c3nccn3C)nn3cc(-c4ccn(C)n4)c(C(=O)NCCN(C)C)c23)c1 [Compound 177, N-(2-(Dimethylamino)ethyl)-4-((4-methoxypyridin-2-yl)amino)-2-(1-methyl-1H-imidazol-2-yl)-6-(1-methyl-1H-pyrazol-3-yl)pyrrolo[2,1-f][1,2,4]triazine-5-carboxamide] | D* (85-100% activation) | A* (1-25% activation)
CO[C@H]1C[C@H](Nc2nc(-c3nccn3C)nn3cc(-c4cccc(CN)c4)c(-c4ccccc4)c23)C1 [Compound 204, 6-(3-(aminomethyl)phenyl)-N-((1r,3r)-3-methoxycyclobutyl)-2-(1-methyl-1H-imidazol-2-yl)-5-phenylpyrrolo[2,1-f][1,2,4]triazin-4-amine] | D* (85-100% activation) | C* (46-84% activation)
CO[C@H]1C[C@H](Nc2nc(-c3nccn3C)nn3cc(-c4ccc(OCCN)cc4)c(-c4ccccc4)c23)C1.Cl [Compound 208, 6-(4-(2-Aminoethoxy)phenyl)-N-((1r,3r)-3-methoxycyclobutyl)-2-(1-methyl-1H-imidazol-2-yl)-5-phenylpyrrolo[2,1-f][1,2,4]triazin-4-amine hydrochloride salt] | C* (46-84% activation) | D* (85-100% activation)
COCCCNC(=O)c1c(-c2ccn(C)n2)cn2nc(-c3nccn3C)nc(N[C@H]3CC[C@H](OC)C3)c12 (racemic) [Compound 184, rac 4-(((1S,3S)-3-methoxycyclo-pentyl)amino)-N-(3-methoxypropyl)-2-(1-methyl-1H-imidazol-2-yl)-6-(1-methyl-1H-pyrazol-3-yl)pyrrolo[2,1-f][1,2,4]triazine-5-carboxamide] | A* (1-25% activation) | A* (1-25% activation)
COc1ccnc(Nc2nc(-c3nccn3CCNC(=O)CCCC[C@H]3SC[C@H]4NC(=O)N[C@H]43)nn3cc(-c4ccn(C)n4)c(C)c23)c1 [Compound 216, N-(2-(2-(4-((4-methoxypyridin-2-yl)amino)-5-methyl-6-(1-methyl-1H-pyrazol-3-yl)pyrrolo[2,1-f][1,2,4]triazin-2-yl)-1H-imidazol-1-yl)ethyl)-5-((3aR,4R,6aS)-2-oxohexahydro-1H-thieno[3,4-d]imidazol-4-yl)pentanamide] | C* (46-84% activation) | A* (1-25% activation)
Cc1c(-c2ccn(C)n2)cn2nc(-c3nccn3C)nc(Nc3ccc(C(C)(C)O)cn3)c12 [Compound 241, 2-(6-((5-Methyl-2-(1-methyl-1H-imidazol-2-yl)-6-(1-methyl-1H-pyrazol-3-yl)pyrrolo[2,1-f][1,2,4]triazin-4-yl)amino)pyridin-3-yl)propan-2-ol] | D* (85-100% activation) | D* (85-100% activation)
CO[C@H]1CC[C@H](Nc2nc(-c3nccn3C)nn3cc(-c4cccnc4)c(-c4ccccc4)c23)C1 (racemic) [Compound 194, rac N-((1S,3S)-3-Methoxycyclopentyl)-2-(1-methyl-1H-imidazol-2-yl)-5-phenyl-6-(pyridin-3-yl)pyrrolo[2,1-f][1,2,4]triazin-4-amine] | D* (85-100% activation) | D* (85-100% activation)
Cc1c(-c2ccn(C)n2)cn2nc(-c3nccn3C)nc(Nc3ccc(OC(F)F)cn3)c12 [Compound 231, N-(5-(Difluorometh-oxy)pyridin-2-yl)-5-methyl-2-(1-methyl-1H-imidazol-2-yl)-6-(1-methyl-1H-pyrazol-3-yl)pyrrolo[2,1-f][1,2,4]triazin-4-amine] | D* (85-100% activation) | D* (85-100% activation)
